Results reported in publication PMC10394673, “Module walking using an SH3-like cell-wall-binding domain leads to a new GH184 family of muramidases” (Acta Crystallographica. Section D, Structural Biology, 2023).
Peptide text beside a SMILES is read from it.

Legend:
[1] = molecular target: T1, TsCWBD (Trichophaea saccata, UniProt A0AA82WPC9); experiment: nanoDSF thermal shift; type: binding; conditions: pH 8.5; Chelex-treated and untreated protein
T1 construct: isolated N-terminal SH3-like CWBD, residues 1-73 of the 245-residue GH24 muramidase, about 10 kDa, recombinant; no catalytic domain
T1 sequence (A0AA82WPC9 1-73): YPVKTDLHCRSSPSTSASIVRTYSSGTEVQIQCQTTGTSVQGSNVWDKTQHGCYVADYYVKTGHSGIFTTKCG

[2] = molecular target: T1, TsCWBD; experiment: X-ray crystal structure, […] A; type: binding; conditions: co-crystallized with 10 mM triglycine, pH 8.5; canonical SH3 specificity zone (Asp6, His8, Arg10); zinc-bridged crystal contact

## NCC(=O)NCC(=O)NCC(=O)O [triglycine] (H-Gly-Gly-Gly-OH)
[1]
  thermal shift: the thermal shift is present for both treated and untreated samples, implying ligand binding
[2]
  X-ray crystal structure, 1.18 A: The triglycine in our structure is bound within the canonical specificity zone
